Results: ChEMBL document CHEMBL1143059, “Structure-based design, synthesis and preliminary evaluation of selective inhibitors of dihydrofolate reductase from Mycobacterium tuberculosis” (Bioorg Med Chem, 2007)

Key:
[1] = target: T1, Dihydrofolate reductase (Homo sapiens) (UniProt P00374)
T1 sequence (whole entry): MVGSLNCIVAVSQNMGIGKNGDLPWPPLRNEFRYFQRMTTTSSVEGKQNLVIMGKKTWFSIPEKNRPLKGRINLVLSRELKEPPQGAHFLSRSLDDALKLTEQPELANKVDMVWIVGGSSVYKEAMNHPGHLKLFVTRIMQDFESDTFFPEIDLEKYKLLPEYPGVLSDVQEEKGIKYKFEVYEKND
Description: Inhibition of human DHFR expressed in Saccharomyces cerevisiae TB5 assessed as yeast growth inhibition after 3 days by radial spoke assay

[2] = target: T2, Dihydrofolate reductase (Mycobacterium tuberculosis) (UniProt P9WNX1)
T2 sequence (whole entry): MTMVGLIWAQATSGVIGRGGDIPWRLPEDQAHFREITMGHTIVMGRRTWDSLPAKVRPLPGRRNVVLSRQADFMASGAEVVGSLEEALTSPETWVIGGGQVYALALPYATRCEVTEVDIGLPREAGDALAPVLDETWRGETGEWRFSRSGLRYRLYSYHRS
Description: Inhibition of Mycobacterium tuberculosis DHFR expressed in Saccharomyces cerevisiae TB5 assessed as yeast growth inhibition after 3 days by radial spoke assay

[3] = target: T3, Dihydrofolate reductase (Saccharomyces cerevisiae S288c) (UniProt P07807)
T3 sequence (whole entry): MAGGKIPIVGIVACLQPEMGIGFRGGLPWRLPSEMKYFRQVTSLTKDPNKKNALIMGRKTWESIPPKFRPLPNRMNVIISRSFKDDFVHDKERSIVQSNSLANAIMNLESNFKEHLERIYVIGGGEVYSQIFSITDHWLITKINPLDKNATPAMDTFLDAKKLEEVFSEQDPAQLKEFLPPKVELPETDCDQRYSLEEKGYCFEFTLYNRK
Description: Inhibition of yeast DHFR expressed in Saccharomyces cerevisiae TB5 assessed as yeast growth inhibition by after 3 days by radial spoke assay

Structure (SMILES)	IZ [1] [mm]	IZ [2] [mm]	IZ [3] [mm]
Nc1nc(N)c(-c2ccc(Cl)cc2)c(CCCCCO)n1	8	8	8
Nc1ncc(-c2ccccc2)c(CCc2ccccc2)n1	5	5	5
Nc1nc(N)c(-c2ccccc2)c(CCCCCO)n1	7	7	9
Nc1nc(N)c(-c2ccc(Cl)c(Cl)c2)c(CCCCCO)n1	9	9	9
Nc1nc(N)c(-c2ccc(Br)cc2)c(CC[C@H](O)[C@@H](O)CO)n1	5	8	6
Nc1nc(N)c(-c2ccc(Cl)cc2)c([C@H](O)[C@H](O)CO)n1	5	5	5
Nc1nc(N)c(-c2ccccc2)c([C@H](O)[C@H](O)CO)n1	5	5	5
Nc1nc(N)c(-c2ccc(Br)cc2)c(CC[C@@H](O)[C@@H](O)CO)n1	6	7	8
Nc1nc(N)c(-c2ccccc2)c(CC[C@H](O)[C@@H](O)CO)n1	8	9	8
Nc1nc(N)c(-c2ccc(Cl)c(Cl)c2)c(CC[C@@H](O)[C@@H](O)CO)n1	8	8	8
CCc1nc(N)nc(N)c1-c1cccc(Cl)c1	6	5	5
Nc1nc(N)c(-c2ccc(Cl)cc2)c(CC[C@@H](O)[C@@H](O)CO)n1	7	9	7
Nc1nc(N)c(-c2ccc(Cl)cc2)c(CC[C@H](O)[C@@H](O)CO)n1	7	7	6
Nc1nc(N)c(-c2ccc(Cl)c(Cl)c2)c([C@H](O)[C@H](O)CO)n1	8	8	7
Nc1nc(N)c(-c2ccc(Br)cc2)c(CCCCCO)n1	8	8	9
Nc1nc(N)c(-c2ccc(Br)cc2)c([C@H](O)[C@H](O)CO)n1	5	5	5
Nc1nc(N)c(-c2ccccc2)c(CC[C@@H](O)[C@@H](O)CO)n1	6	11	6
